Patent US12208167B1 (priority 2024, dated 2025)
Structures can show the parent of a compound that is named as a salt.

Key:
[1] = single oral dose of 5 mg delayed release tablet, fasting
Method: Male and female study participants (in equal proportions) were enrolled in the study. A total of 54 normal, healthy, adult, human study participants were enrolled. All subjects either received test product (test) or reference product (reference) in each period according to the randomization schedule after ensuring maintenance of pre-dose restrictions (fasting for 10 hours prior to administration in sitting posture with 240±2 mL of drinking water at ambient temperature).
A washout period of 7 days was observed between both study periods. Study restrictions with respect to fluid intake and sitting positions were implemented during the restriction periods throughout the study in all periods.
Study participants were instructed not to break, cut, and chew the tablet (test or reference) but to swallow whole and were asked to take it with the specified quantity of water. Water intake was not allowed for 1 hour before dosing until 1 hour after dosing except while administration of the dose. After dosing, the participants remained in sitting position for first two hours. On dosing days, meals were given as per the following schedule. […]
The actual post-dose time of collection was used in the calculation of the above pharmacokinetic parameters. Drug concentrations that are below limit of quantification (BLQ) were treated as “zero” in all pharmacokinetic and statistical calculations. […]

[2] = cited from earlier work
[3] = cited from earlier work; remark: listed apart in the source

| SMILES | plasma benzgalantamine concentration profile after test tablet [1] | gastrointestinal adverse events ([2]; intranasal, twice daily dose of 11 mg) | tolerability ([2]; intranasal, up to a twice daily dose of 22 mg) | administered compound not cleaved to galantamine, observed in blood ([2]; nasal administration, previous studies) | mean volume of distribution ([3]; human, in vivo) [L] | tmax ([3]; oral galantamine) |
| --- | --- | --- | --- | --- | --- | --- |
| COc1ccc2c3c1OC1C[C@@H](OC(=O)c4ccccc4)C=C[C@@]31CCN(C)C2 (stereo partly drawn) [benzgalantamine, (4aS,6R,8aS)-4a,5,9,10,11,12-hexahydro-3-methoxy-11-methyl-6H[1]benzofuro[3a,3,2-ef][2]benzazepin-6 benzoate gluconate salt] | almost all values are zero or below limit of quantification (BLQ) at all times | No gastrointestinal adverse events were observed | well tolerated | up to 10% | – | – |
| COc1ccc2c3c1O[C@H]1C[C@@H](O)C=C[C@@]31CCN(C)C2 [galantamine, (4aS,6R,8aS)-3-Methoxy-11-methyl-4a,5,9,10,11,12-hexahydro-6H-benzofuro[3a,3,2-ef][2]benzazepin-6-ol] | – | – | – | – | 175 | about 1 hour |
